Among the data in US8178522B2, “Thiazoles” (Hoffmann-La Roche Inc., priority 2009, dated 2012) are Ki values, retold here.

For this assay, the target named is T1, GABA A α5 (α5β3γ2) (Homo sapiens, UniProt P18507+P31644).
T1 construct: expressed in transfected cells; host or cells: HEK293, transiently transfected; membrane preparation
Description: [3H]flumazenil competition binding, human GABA A α5 receptor. The following applies: human receptor α5β3γ2 transiently transfected in HEK293 cells; competition for [3H]flumazenil 0.5 nM; 1 hour at 4° C.; means of two determinations; read-out: hKi GABA A α5. How it is done:
Membrane Preparation and Binding Assay
The affinity of compounds at GABA A receptor subtypes was measured by competition for [3H]flumazenil (85 Ci/mmol; Roche) binding to HEK293 cells expressing rat (stably transfected) or human (transiently transfected) receptors of compositional α1β3γ2, α2β3γ2, α3β3γ2 and α5β3γ2.
Cell pellets were suspended in Krebs-tris buffer (4.8 mM KCl, 1.2 mM CaCl2, 1.2 mM MgCl2, 120 mM NaCl, 15 mM Tris; pH 7.5; binding assay buffer), homogenized by polytron for ca. 20 sec on ice and centrifuged for 60 min at 4° C. (50000 g; Sorvall, rotor: SM24=20000 rpm). The cell pellets were re-suspended in Krebs-tris buffer and homogenized by polytron for ca. 15 sec on ice. Protein was measured (Bradford method, Bio-Rad) and aliquots of 1 mL were prepared and stored at −80° C.
Assays were incubated to equilibrium for 1 hour at 4° C. and harvested onto GF/C uni-filters (Packard) by filtration using a Packard harvester and washing with ice-cold wash buffer (50 mM Tris; pH 7.5). After drying, filter-retained radioactivity was detected by liquid scintillation counting. Ki values were calculated using Excel-Fit (Microsoft) and are the means of two determinations.
For `Cc1nc(CCc2c(-c3ccccc3)noc2C)sc1C(=O)NC(C)CO` (racemic) [Example 3, Rac-4-Methyl-2-[2-(5-methyl-3-phenyl-isoxazol-4-yl)-ethyl]-thiazole-5-carboxylic acid (2-hydroxy-1-methyl-ethyl)-amide], the Ki stood at 0.0079 µM.
The value for `CCCCc1noc(C)c1CCc1nc(C)c(C(=O)NC2CCOC2)s1` (racemic) [Example 52, Rac-2-[2-(3-Butyl-5-methyl-isoxazol-4-yl)-ethyl]-4-methyl-thiazole-5-carboxylic acid (tetrahydro-furan-3-yl)-amide] was 0.0152 µM.
The result for `CCCCc1noc(C)c1/C=C/c1nc(C)c(C(=O)NC(C)CO)s1` (racemic) [Example 97, Rac-2-[(E)-2-(3-Butyl-5-methyl-isoxazol-4-yl)-vinyl]-4-methyl-thiazole-5-carboxylic acid (2-hydroxy-1-methyl-ethyl)-amide] reads 0.0047 µM.
The value for `CCCCc1noc(C)c1/C=C/c1nc(C)c(C(=O)NC(CC)CO)s1` (racemic) [Example 104, Rac-2-[(E)-2-(3-Butyl-5-methyl-isoxazol-4-yl)-vinyl]-4-methyl-thiazole-5-carboxylic acid (1-hydroxymethyl-propyl)-amide] was 0.0031 µM; that for `CCCCc1noc(C)c1COc1ncc(C(=O)NC(C)CO)s1` (racemic) [Example 133, Rac-2-(3-Butyl-5-methyl-isoxazol-4-ylmethoxy)-thiazole-5-carboxylic acid (2-hydroxy-1-methyl-ethyl)-amide] was 0.0192 µM.
`Cc1nc(CCc2c(-c3ccccc3)noc2C)sc1C(=O)NC1CCOC1` (stereo in doubt) [Example 2, (S)-4-Methyl-2-[2-(5-methyl-3-phenyl-isoxazol-4-yl)-ethyl]-thiazole-5-carboxylic acid (tetrahydro-furan-3-yl)-amide]: the Ki came to 0.0109 µM.
Turning to `Cc1onc(-c2ccccc2)c1/C=C/c1ncc(C(=O)NC2CCOC2)s1` (stereo in doubt) [Example 64, (S)-2-[(E)-2-(5-Methyl-3-phenyl-isoxazol-4-yl)-vinyl]-thiazole-5-carboxylic acid (tetra-hydro-furan-3-yl)-amide], the Ki is 0.0017 µM.
The value for `CCCCc1noc(C)c1/C=C/c1nc(C)c(C(=O)NC2CCCC2O)s1` (stereo in doubt) [Example 114, 2-[(E)-2-(3-Butyl-5-methyl-isoxazol-4-yl)-vinyl]-4-methyl-thiazole-5-carboxylic acid ((1R,2R)-2-hydroxy-cyclopentyl)-amide] was 0.0064 µM; that for `Cc1nc(CCc2c(-c3ccccc3)noc2C)sc1C(=O)NC(C)C` [Example 1, 4-Methyl-2-[2-(5-methyl-3-phenyl-isoxazol-4-yl)-ethyl]-thiazole-5-carboxylic acid iso-propylamide] was 0.0057 µM.
The result for `Cc1nc(CCc2c(-c3ccccc3)noc2C)sc1C(=O)NCC(C)(C)O` [Example 4, 4-Methyl-2-[2-(5-methyl-3-phenyl-isoxazol-4-yl)-ethyl]-thiazole-5-carboxylic acid (2-hydroxy-2-methyl-propyl)-amide] reads 0.0378 µM; that for `Cc1nc(CCc2c(-c3ccccc3)noc2C)sc1C(=O)NC1CCOCC1` [Example 5, 4-Methyl-2-[2-(5-methyl-3-phenyl-isoxazol-4-yl)-ethyl]-thiazole-5-carboxylic acid (tetrahydro-pyran-4-yl)-amide], 0.0082 µM.
The value for `Cc1nc(CCc2c(-c3ccccc3)noc2C)sc1C(N)=O` [Example 6, 4-Methyl-2-[2-(5-methyl-3-phenyl-isoxazol-4-yl)-ethyl]thiazole-5-carboxylic acid amide] was 0.0337 µM; that for `Cc1onc(-c2ccccc2)c1CCc1ncc(C(=O)NC(C)C)s1` [Example 7, 2-[2-(5-Methyl-3-phenyl-isoxazol-4-yl)-ethyl]-thiazole-5-carboxylic acid isopropyl-amide] was 0.0138 µM.
For `COC(=O)c1sc(CCc2c(-c3ccccn3)noc2C)nc1C` [Example 8, 4-Methyl-2-[2-(5-methyl-3-pyridin-2-yl-isoxazol-4-yl)-ethyl]-thiazole-5-carboxylic acid methyl ester], the Ki is 0.0203 µM.
For the molecule `Cc1nc(CCc2c(-c3ccccn3)noc2C)sc1C(=O)NC1CCOCC1` [Example 9, 4-Methyl-2-[2-(5-methyl-3-pyridin-2-yl-isoxazol-4-yl)-ethyl]-thiazole-5-carboxylic acid (tetrahydro-pyran-4-yl)-amide], the Ki came out at 0.0057 µM.
The value for `Cc1nc(CCc2c(-c3ccccn3)noc2C)sc1C(=O)NC(C)C` [Example 10, 4-Methyl-2-[2-(5-methyl-3-pyridin-2-yl-isoxazol-4-yl)-ethyl]-thiazole-5-carboxylic acid isopropylamide] was 0.0043 µM; that for `Cc1nc(CCc2c(-c3ccccn3)noc2C)sc1C(=O)NC1CC1` [Example 11, 4-Methyl-2-[2-(5-methyl-3-pyridin-2-yl-isoxazol-4-yl)-ethyl]-thiazole-5-carboxylic acid cyclopropylamide] was 0.0077 µM; that for `Cc1nc(CCc2c(-c3ccccn3)noc2C)sc1C(=O)NCC1CC1` [Example 12, 4-Methyl-2-[2-(5-methyl-3-pyridin-2-yl-isoxazol-4-yl)-ethyl]-thiazole-5-carboxylic acid cyclopropylmethyl-amide] was 0.0134 µM.
In the case of `Cc1nc(CCc2c(-c3ccccn3)noc2C)sc1C(=O)NCC(F)(F)F` [Example 13, 4-Methyl-2-[2-(5-methyl-3-pyridin-2-yl-isoxazol-4-yl)-ethyl]-thiazole-5-carboxylic acid (2,2,2-trifluoro-ethyl)-amide], the Ki came out at 0.0042 µM.
The value for `Cc1nc(CCc2c(-c3ccccn3)noc2C)sc1C(=O)NCCO` [Example 14, 4-Methyl-2-[2-(5-methyl-3-pyridin-2-yl-isoxazol-4-yl)-ethyl]-thiazole-5-carboxylic acid (2-hydroxy-ethyl)-amide] was 0.0141 µM; that for `CCNC(=O)c1sc(CCc2c(-c3ccccn3)noc2C)nc1C` [Example 15, 4-Methyl-2-[2-(5-methyl-3-pyridin-2-yl-isoxazol-4-yl)-ethyl]-thiazole-5-carboxylic acid ethylamide] was 0.012 µM.
The value for `CNC(=O)c1sc(CCc2c(-c3ccccn3)noc2C)nc1C` [Example 16, 4-Methyl-2-[2-(5-methyl-3-pyridin-2-yl-isoxazol-4-yl)-ethyl]-thiazole-5-carboxylic acid methylamide] was 0.0213 µM; that for `Cc1nc(CCc2c(-c3ccccn3)noc2C)sc1C(=O)N1CCSCC1` [Example 17, {4-Methyl-2-[2-(5-methyl-3-pyridin-2-yl-isoxazol-4-yl)-ethyl]-thiazol-5-yl}-thiomorpholin-4-yl-methanone] was 0.0428 µM; that for `Cc1nc(CCc2c(-c3ccccn3)noc2C)sc1C(N)=O` [Example 18, 4-Methyl-2-[2-(5-methyl-3-pyridin-2-yl-isoxazol-4-yl)-ethyl]-thiazole-5-carboxylic acid amide] was 0.0323 µM.
The value for `Cc1nc(CCc2conc2-c2ccccn2)sc1C(=O)NC1CCOCC1` [Example 19, 4-Methyl-2-[2-(3-pyridin-2-yl-isoxazol-4-yl)-ethyl]-thiazole-5-carboxylic acid (tetra-hydro-pyran-4-yl)-amide] was 0.0876 µM.
